Results: patent US7956190B2, “Benzimidazole amido derivatives as kinase inhibitors” (Hoffmann-La Roche Inc., priority 2007, dated 2011)

System: HCT 116 cells
Assay: CellTiter-Glo Assay in HCT 116 Cells
Assay type: cell-based
Conditions: HCT 116 human colon carcinoma cells, 5 days (120 h) incubation, CellTiter-Glo luminescence, tested in triplicate
From the text: CellTiter-Glo™ Assay in HCT 116 Cells
The CellTiter-Glo™ Luminescent Cell Viability Assay (Promega) is a homogeneous method of determining the number of viable cells in culture based on quantitation of the ATP present, which signals the presence of metabolically active cells.
HCT 116 cells (human colon carcinoma, ATCC-No. CCl-247) were cultivated in RPMI 1640 medium with GlutaMAX™ I (Invitrogen, Cat-No. 61870-010), 5% Fetal Calf Serum (FCS, Sigma Cat-No. F4135 (FBS)); 100 Units/ml penicillin/100 μg/ml streptomycin (=Pen/Strep from Invitrogen Cat. No. 15140). For the assay the cells were seeded in 384 well plates, 1000 cells per well, in the same medium. The next day the test compounds were added in various concentrations ranging from 30 μM to 0.0015 μM (10 concentrations, 1:3 diluted). After 5 days the CellTiter-Glo™ assay was done according to the instructions of the manufacturer (CellTiter-Glo™ Luminescent Cell Viability Assay, from Promega). In brief: the cell-plate was equilibrated to room temperature for approximately 30 minutes and than the CellTiter-Glo™ reagent was added. The contents were carefully mixed for 15 minutes to induce cell lysis. After 45 minutes the luminescent signal was measured in Victor 2, (scanning multiwell spectrophotometer, Wallac).
• Medium: RPMI 1640 with GlutaMAX™ I (Invitrogen, Cat-Nr. 61870), 5% FCS (Sigma Cat.-No. F4135), Pen/Strep (Invitrogen, Cat No. 15140). • HCT116 (ATCC-No. CCl-247): 1000 cells in 60 μl per well of 384 well plate (Greiner 781098, μClear-plate white) • After seeding incubate plates 24 h at 37° C., 5% CO2 2nd. Day: Induction (Treatment with Compounds, 10 Concentrations):
In order to achieve a final concentration of 30 μM as highest concentration 3.5 μl of 10 mM compound stock solution were added directly to 163 μl media. Then step e) of the dilution procedure described below, was followed.

`COc1cccc(NC(=O)Nc2cccc3nc(-c4c(NC[C@@H](O)c5ccccc5)cc[nH]c4=O)[nH]c23)c1` [Example D-6, 1-{2-[4-((S)-2-Hydroxy-2-phenyl-ethylamino)-2-oxo-1,2-dihydro-pyridin-3-yl]-3H-benzoimidazol-4-yl}-3-(3-methoxy-phenyl)-urea] and `O=C(Nc1cccc(F)c1)Nc1cccc2nc(-c3c(NC[C@@H](O)c4ccccc4)cc[nH]c3=O)[nH]c12` [Example D-1, 1-(3-Fluoro-phenyl)-3-{2-[4-((S)-2-hydroxy-2-phenyl-ethylamino)-2-oxo-1,2-dihydro-pyridin-3-yl]-3H-benzoimidazol-4-yl}-urea] fall in the same range of IC50: 1 to 15 µM for the first, 1 to 15 µM for the second.

`O=C(Nc1cccc2nc(-c3c(NCc4ccccc4)cc[nH]c3=O)[nH]c12)c1ccc(Cl)cc1` [Example A-18, N-[2-(4-Benzylamino-2-oxo-1,2-dihydro-pyridin-3-yl)-3H-benzoimidazol-4-yl]-4-chloro-benzamide] and `COc1ccc(C(=O)Nc2cccc3nc(-c4c(NCc5ccccc5)cc[nH]c4=O)[nH]c23)cc1` [Example A-3, N-[2-(4-Benzylamino-2-oxo-1,2-dihydro-pyridin-3-yl)-3H-benzoimidazol-4-yl]-4-methoxy-benzamide] fall in the same range of IC50: 1 to 15 µM for the first, 1 to 15 µM for the second.

`O=C(Nc1ccc(F)cc1)Nc1cccc2nc(-c3c(NC[C@@H](O)c4ccccc4)cc[nH]c3=O)[nH]c12` [Example D-3, 1-(4-Fluoro-phenyl)-3-{2-[4-((S)-2-hydroxy-2-phenyl-ethylamino)-2-oxo-1,2-dihydro-pyridin-3-yl]-3H-benzoimidazol-4-yl}-urea] and `O=C(Nc1ccc(OC(F)(F)F)cc1)Nc1cccc2nc(-c3c(NC[C@@H](O)c4ccccc4)cc[nH]c3=O)[nH]c12` [Example D-4, 1-{2-[4-((S)-2-Hydroxy-2-phenyl-ethylamino)-2-oxo-1,2-dihydro-pyridin-3-yl]-3H-benzoimidazol-4-yl}-3-(4-trifluoromethoxy-phenyl)-urea] cannot be ordered by IC50: 3.61 µM for the first, 1 to 15 µM for the second.

`O=C(Cc1ccccc1)Nc1cccc2nc(-c3c(NC[C@@H](O)c4ccccc4)cc[nH]c3=O)[nH]c12` [Example B-1, N-{2-[4-((S)-2-Hydroxy-2-phenyl-ethylamino)-2-oxo-1,2-dihydro-pyridin-3-yl]-3H-benzoimidazol-4-yl}-2-phenyl-acetamide] and `O=C(NCc1ccccc1)Nc1cccc2nc(-c3c(NC[C@@H](O)c4ccccc4)cc[nH]c3=O)[nH]c12` [Example D-7, 1-Benzyl-3-{2-[4-((S)-2-hydroxy-2-phenyl-ethylamino)-2-oxo-1,2-dihydro-pyridin-3-yl]-3H-benzoimidazol-4-yl}-urea] fall in the same range of IC50: 1 to 15 µM for the first, 1 to 15 µM for the second.

`CC(C)OC(=O)Nc1cccc2nc(-c3c(NC[C@@H](O)c4ccccc4)cc[nH]c3=O)[nH]c12` [Example C-6, {2-[4-((S)-2-Hydroxy-2-phenyl-ethylamino)-2-oxo-1,2-dihydro-pyridin-3-yl]-3H-benzoimidazol-4-yl}-carbamic acid isopropyl ester] and `C=CCOC(=O)Nc1cccc2nc(-c3c(NC[C@@H](O)c4ccccc4)cc[nH]c3=O)[nH]c12` [Example C-5, {2-[4-((S)-2-Hydroxy-2-phenyl-ethylamino)-2-oxo-1,2-dihydro-pyridin-3-yl]-3H-benzoimidazol-4-yl}-carbamic acid allyl ester] cannot be ordered by IC50: 1 to 15 µM for the first, 2.78 µM for the second.

`O=C(Nc1cccc2nc(-c3c(NCC(O)c4ccccc4)cc[nH]c3=O)[nH]c12)c1ccccc1Cl` (centres unmarked) [Example B-10, 2-Chloro-N-{2-[4-(2-hydroxy-2-phenyl-ethylamino)-2-oxo-1,2-dihydro-pyridin-3-yl]-3H-benzoimidazol-4-yl}-benzamide] and `O=C(Nc1cccc2nc(-c3c(NC[C@@H](O)c4ccccc4)cc[nH]c3=O)[nH]c12)c1ccc(Cl)cc1Cl` [Example B-16, 2,4-Dichloro-N-{2-[4-((S)-2-hydroxy-2-phenyl-ethylamino)-2-oxo-1,2-dihydro-pyridin-3-yl}-3H-benzoimidazol-4-yl]-benzamide] fall in the same range of IC50: 1 to 15 µM for the first, 1 to 15 µM for the second.

`O=C(COc1ccc(Cl)cc1)Nc1cccc2nc(-c3c(NC[C@@H](O)c4ccccc4)cc[nH]c3=O)[nH]c12` [Example B-11, 2-(4-Chloro-phenoxy)-N-{2-[4-((S)-2-hydroxy-2-phenyl-ethylamino)-2-oxo-1,2-dihydro-pyridin-3-yl]-3H-benzoimidazol-4-yl}-acetamide] and `O=C(COc1ccccc1)Nc1cccc2nc(-c3c(NC[C@@H](O)c4ccccc4)cc[nH]c3=O)[nH]c12` [Example B-6, N-{2-[4-((S)-2-Hydroxy-2-phenyl-ethylamino)-2-oxo-1,2-dihydro-pyridin-3-yl]-3H-benzoimidazol-4-yl}-2-phenoxy-acetamide] fall in the same range of IC50: 1 to 15 µM for the first, 1 to 15 µM for the second.

`O=C(Nc1cccc2nc(-c3c(NCc4cccc(Cl)c4)cc[nH]c3=O)[nH]c12)c1ccccc1` [Example B-2, N-{2-[4-(3-Chloro-benzylamino)-2-oxo-1,2-dihydro-pyridin-3-yl]-3H-benzoimidazol-4-yl}-benzamide] and `O=C(Nc1cccc2nc(-c3c(NCC(O)c4ccccc4)cc[nH]c3=O)[nH]c12)c1cccc(Cl)c1` (centres unmarked) [Example A-11, 3-Chloro-N-[2-[4-(2-hydroxy-2-phenyl-ethylamino)-2-oxo-1,2-dihydro-pyridin-3-yl]-3H-benzoimidazol-4-yl]-benzamide] fall in the same range of IC50: 1 to 15 µM for the first, 1 to 15 µM for the second.

`O=C(Nc1cccc2nc(-c3c(NC[C@@H](O)c4ccccc4)cc[nH]c3=O)[nH]c12)C1CC1` [Example B-8, Cyclopropanecarboxylic acid {2-[4-((S)-2-hydroxy-2-phenyl-ethylamino)-2-oxo-1,2-dihydro-pyridin-3-yl]-3H-benzoimidazol-4-yl}-amide] and `COCCOC(=O)Nc1cccc2nc(-c3c(NC[C@@H](O)c4ccccc4)cc[nH]c3=O)[nH]c12` [Example C-2, {2-[4-((S)-2-Hydroxy-2-phenyl-ethylamino)-2-oxo-1,2-dihydro-pyridin-3-yl]-3H-benzoimidazol-4-yl}-carbamic acid 2-methoxy-ethyl ester] fall in the same range of IC50: 1 to 15 µM for the first, 1 to 15 µM for the second.

`O=C(Nc1ccccc1Cl)Nc1cccc2[nH]c(-c3c(NC[C@@H](O)c4cccc(Cl)c4)cc[nH]c3=O)nc12` [Example D-8, 1-(2-Chloro-phenyl)-3-(2-{4-[(S)-2-(3-chloro-phenyl)-2-hydroxy-ethylamino]-2-oxo-1,2-dihydro-pyridin-3-yl}-1H-benzoimidazol-4-yl)-urea] and `COC(=O)Nc1cccc2[nH]c(-c3c(NC[C@@H](O)c4cccc(Cl)c4)cc[nH]c3=O)nc12` [Example C-7, (2-{4-[(S)-2-(3-Chloro-phenyl)-2-hydroxy-ethylamino]-2-oxo-1,2-dihydro-pyridin-3-yl}-1H-benzoimidazol-4-yl)-carbamic acid methylester] fall in the same range of IC50: 1 to 15 µM for the first, 1 to 15 µM for the second.

`O=C(Nc1cccc2nc(-c3c(NC[C@@H](O)c4ccccc4)cc[nH]c3=O)[nH]c12)c1cccc(F)c1` [Example B-15, 3-Fluoro-N-{2-[4-((S)-2-hydroxy-2-phenyl-ethylamino)-2-oxo-1,2-dihydro-pyridin-3-yl]-3H-benzoimidazol-4-yl}-benzamide] and `COc1cccc(C(=O)Nc2cccc3nc(-c4c(NC[C@@H](O)c5ccccc5)cc[nH]c4=O)[nH]c23)c1` [Example B-18, N-{2-[4-((S)-2-Hydroxy-2-phenyl-ethylamino)-2-oxo-1,2-dihydro-pyridin-3-yl]-3H-benzoimidazol-4-yl}-3-methoxy-benzamide] cannot be ordered by IC50: 6.92 µM for the first, 1 to 15 µM for the second.

`O=C(Nc1ccccc1)Nc1cccc2nc(-c3c(NC[C@@H](O)c4ccccc4)cc[nH]c3=O)[nH]c12` [Example D-5, 1-{2-[4-((S)-2-Hydroxy-2-phenyl-ethylamino)-2-oxo-1,2-dihydro-pyridin-3-yl]-3H-benzoimidazol-4-yl}-3-phenyl-urea] and `O=C(Nc1cccc2nc(-c3c(NC[C@@H](O)c4ccccc4)cc[nH]c3=O)[nH]c12)c1ccc(C(F)(F)F)cc1` [Example A-15, N-{2-[4-((S)-2-Hydroxy-2-phenyl-ethylamino)-2-oxo-1,2-dihydro-pyridin-3-yl]-3H-benzoimidazol-4-yl}-4-trifluoromethyl-benzamide] fall in the same range of IC50: 1 to 15 µM for the first, 1 to 15 µM for the second.

`COc1ccccc1C(=O)Nc1cccc2nc(-c3c(NCc4ccccc4)cc[nH]c3=O)[nH]c12` [Example A-16, N-[2-(4-Benzylamino-2-oxo-1,2-dihydro-pyridin-3-yl)-3H-benzoimidazol-4-yl]-2-methoxy-benzamide] and `CC(C)(OC(=O)Nc1cccc2nc(-c3c(NC[C@@H](O)c4ccccc4)cc[nH]c3=O)[nH]c12)C(Cl)(Cl)Cl` [Example C-3, {2-[4-((S)-2-Hydroxy-2-phenyl-ethylamino)-2-oxo-1,2-dihydro-pyridin-3-yl]-3H-benzoimidazol-4-yl}-carbamic acid 2,2,2-trichloro-1,1-dimethyl-ethyl ester] fall in the same range of IC50: 1 to 15 µM for the first, 1 to 15 µM for the second.
